Measurements as given in ChEMBL document CHEMBL1127701, “Antineoplastic agents. 278. Isolation and structure of axinastatins 2 and 3 from a western Caroline Island marine sponge” (1994).
≈ marks a conversion by molar mass, not a printed value. Where a SMILES comes first, the peptide text is derived from it.

Columns and labels:
Assay type in all cases: functional
A498 = assay: Tested for cytostatic activity against renal A498 cell line; settings: Homo sapiens
KM-20L2 = assay: Tested for cytostatic activity against colon KM20L2 cell line; settings: Homo sapiens
NCI-H460 = assay: Tested for cytostatic activity against lung-NSC […] cell line; settings: Homo sapiens
P388 = assay: Tested for in vitro cytotoxicity against the murine leukemia P388 cell line; settings: Mus musculus, read-out: ED50 (the source's name)
SF-295 = assay: Tested for cytostatic activity against CNS SF-295 cell line; settings: Homo sapiens
SK-MEL-5 = assay: Tested for cytostatic activity against melanoma SK-MEL-5 cell line; settings: Homo sapiens
OVCAR-3 = assay: Tested for cytostatic activity against ovarian OVCAR-3 cell line; settings: Homo sapiens

| GI50 (NCI-H460) | GI50 (SK-MEL-5) | GI50 (OVCAR-3) | SMILES | GI50 (A498) | GI50 (KM-20L2) | EC50 (P388) | GI50 (SF-295) |
| --- | --- | --- | --- | --- | --- | --- | --- |
| 0.19 µg/mL (≈ 0.248 µM) | 0.068 µg/mL (≈ 0.0887 µM) | 0.058 µg/mL (≈ 0.0756 µM) | CC(C)C[C@@H]1NC(=O)[C@H](C(C)C)NC(=O)[C@H](Cc2ccccc2)NC(=O)[C@@H]2CCCN2C(=O)[C@H](CC(N)=O)NC(=O)[C@H](C(C)C)NC(=O)[C@@H]2CCCN2C1=O (cyclo(FVLPVNP)) | 0.38 µg/mL (≈ 0.495 µM) | 0.23 µg/mL (≈ 0.3 µM) | 0.02 µg/mL (≈ 0.0261 µM) | 0.35 µg/mL (≈ 0.456 µM) |
| 0.033 µg/mL (≈ 0.0423 µM) | 0.012 µg/mL (≈ 0.0154 µM) | 0.0072 µg/mL (≈ 0.00922 µM) | CC[C@H](C)[C@@H]1NC(=O)[C@H](Cc2ccccc2)NC(=O)[C@@H]2CCCN2C(=O)[C@H](CC(N)=O)NC(=O)[C@H](C(C)C)NC(=O)[C@@H]2CCCN2C(=O)[C@H](CC(C)C)NC1=O (cyclo(FILPVNP)) | 0.11 µg/mL (≈ 0.141 µM) | 0.055 µg/mL (≈ 0.0704 µM) |  | 0.18 µg/mL (≈ 0.23 µM) |
